Laboratory results reported in a melting point compilation (Tetko et al.; mined from patent text by program, amines drawn as free bases though some values may be those of a salt).

First: N#Cc1ccc2c(c1)nc1n2CCC(=O)N1
Second: CC(=N)Nc1cccc(C#N)c1
The melting point of the first is higher: greater than 340 °C for the first, 228 to 230 °C for the second.

First: C=CCn1c(=O)c2c(nc(/C=C/c3cc(OC)c(O)c(OC)c3)n2C)n(CC=C)c1=O
Second: COc1ccc(-c2cc(=O)c3c(O)c(I)c(OC)cc3o2)cc1
The melting point of the first is higher: 239 to 240 °C for the first, 205 to 207 °C for the second.

First: CCCn1c(=O)c(C(=O)OCC)c(N)c2cccnc21
Second: CCOC(=O)Nc1c(Cl)cc(OC)c(OC)c1C(=O)OCC
The melting point of the first is higher: 165 to 168 °C for the first, 111 to 113 °C for the second.

First: O=C1C=C(c2ccccc2O)CC1
Second: O=C1c2ccccc2C(=O)N1C[C@@H]1CCC=CO1
The melting point of the first is higher: 162 to 165 °C for the first, 87 to 88 °C for the second.

First: CC(=O)NC[C@H]1CN(c2ccc(N3CCC(=CC#N)CC3)c(F)c2)C(=O)O1
Second: COc1cc(N)c(Cl)cc1C(=O)N[C@@H]1CCN(CCCOc2ccc(F)cc2)C[C@H]1F (relative stereo)
The melting point of the first is higher: 159 to 160 °C for the first, 125 °C for the second.

First: CC(=O)Nc1cc(F)c(OCC(F)F)cc1[N+](=O)[O-]
Second: COC(=O)C(C)Oc1ccc(Oc2ncc(Cl)cc2[N+](=O)[O-])cc1 (stereo not given)
The melting point of the first is lower: 72 to 74 °C for the first, 91 to 92 °C for the second.

First: Nc1ccc(Oc2ccc(Oc3ccc(N)c(O)c3)cc2)cc1O
Second: CC(=O)Oc1ccc(/C=C/c2cccc(OC(C)=O)c2)cc1
The melting point of the first is higher: greater than 220 °C for the first, 124 to 125 °C for the second.

Compared with `O=c1cc(-c2nc3ccccc3[nH]2)oc2ccc(Cl)cc12`, `O=c1nc(-c2ccccc2)c2cc3c(cc2[nH]1)OCO3` is higher in melting point: 248 to 250 °C for the first, 351 to 354 °C for the second.

First: O=C1OC(O)c2ccc(Cl)cc21 (stereo not given)
Second: Nc1nc2ccc(Cl)cc2nc1N
The melting point of the first is lower: 108 to 109 °C for the first, 290 °C for the second.

First: O=[N+]([O-])c1ccc(Oc2c(Cl)cc(C(F)(F)F)cc2Cl)cc1SCc1ccccc1
Second: COc1cc2c(Oc3ccc(Cl)cc3F)ncnc2cc1OCc1ccccc1
The melting point of the first is higher: 207 °C for the first, 179 to 180 °C for the second.

First: CCCCCCCCCc1nnc(C2=C(O)c3ccccc3S(=O)(=O)N2C)o1
Second: CCCCCCCCCCCCc1cc2ccc(C(=O)OCC)cc2[nH]1
The melting point of the first is lower: 61.5 to 62 °C for the first, 83 to 86 °C for the second.

First: Cc1cccc2cc(CN(Cc3cc(C(F)(F)F)cc(C(F)(F)F)c3)c3ncc(N4CCOCC4)cn3)c(N(CC3CC3)CC3CC3)nc12
Second: Cc1nc(N(C)c2cccnc2)sc1-c1ccnc(Nc2ccc(N3CCOCC3)cc2)n1
The melting point of the first is lower: 123 to 124 °C for the first, 194 to 195 °C for the second.

First: O=C(CC[C@@H](C(=O)OCc1ccccc1)n1c2ccccc2c2ccccc21)OCCOC(=O)c1ccc(NC(=O)OCc2ccccc2)cc1
Second: O=C(NCCOc1ccc(CC(OCc2ccccc2)C(=O)O)cc1)c1ccc(-c2ccccn2)cc1 (stereo not given)
The melting point of the first is lower: 45 °C for the first, 138 to 139 °C for the second.

Compared with `NC1=Nc2ccc(Br)cc2C2CCCC12F` (stereo not given), `COc1cc(C(=O)O)ccc1Cn1nc(O)c2ccc(NC(=O)CC3CCCC3)cc21` is higher in melting point: 220 °C for the first, 269 to 272 °C for the second.

First: COC(=O)c1cccc2c1Nc1ccc(I)cc1C2
Second: CCOC(=O)C(=O)Nc1cc(C)nc(N2CCc3ccccc3C2)c1
The melting point of the first is lower: 122 to 124 °C for the first, 128 to 129 °C for the second.

Compared with `COc1ccc(C(=O)N(C(=O)c2ccc(OC)cc2)c2nc3ccc(N(C)C)cc3c(NCc3cccs3)c2C#N)cc1`, `O=C(Cc1cccs1)Nc1cccc2nc(N[C@@H]3CCc4ccccc43)ccc12` is lower in melting point: 171 °C for the first, 164 °C for the second.

First: CNC(=O)Nc1snc(S(C)=O)c1C(N)=O (stereo not given)
Second: CC(=O)Nc1nc(NC(C)=O)nc(NC2CC2)n1
The melting point of the first is higher: greater than 355 °C for the first, 267 to 269 °C for the second.

Compared with `Cc1nnc(-c2ccc3occ(-c4ccc(S(C)=O)cc4)c3n2)o1` (stereo not given), `Cc1cccc(N2CCN([C@@H](Cc3ccc(OCCc4nc(-c5ccccc5)oc4C)cc3)C(=O)O)CC2)c1` is lower in melting point: 219 to 220 °C for the first, 205 to 207 °C for the second.

First: CCCCOCCOC(=O)NCCCCCCNC(=O)OCCOCCCC
Second: CCCCCCCCc1c(N)nc(S(C)(=O)=O)nc1CC
The melting point of the first is lower: 64 to 66 °C for the first, 90 to 92 °C for the second.

First: O=C(CCCCCCCCCCN1CCN(c2ccccc2)CC1)Nc1ccc(O)cc1
Second: O=C(O)CCCCCc1nn(-c2ccc(Cl)cc2)c2c1CCC2
The melting point of the first is higher: 160 to 162 °C for the first, 99 to 101 °C for the second.

First: CCCCc1oc2ccc(C(=O)OC(C)C)cc2c1C(=O)c1ccc(OS(=O)(=O)C(F)(F)F)cc1
Second: CC(C)Cn1c(CNC(=O)OC(C)(C)C)c(-c2ccccc2F)c2cc(C(N)=O)ccc2c1=O
The melting point of the first is lower: 100 to 101 °C for the first, 232 to 233 °C for the second.

Compared with `O=c1cc(C(F)(F)F)[nH]c(=O)n1-c1cc([N+](=O)[O-])c(Cl)cc1F`, `CNC(=O)N1N=C(c2ccc([N+](=O)[O-])cc2)c2cc(Cl)c(Cl)cc2CC1C` (stereo not given) is higher in melting point: 204 °C for the first, 221 to 223 °C for the second.

First: CC(C)OC(=O)Nc1cccc(-c2ccnc3c(C(=O)c4ccsc4)cnn23)c1
Second: COC(=O)CC(=O)Nc1cccc(COc2ccc(C(C)=O)c(OC)c2)c1
The melting point of the first is higher: 122 to 124 °C for the first, 93.5 to 96.5 °C for the second.

First: C=CC[C@H]1Cc2c(OCOC)cccc2C(=O)O1
Second: COc1nn(-c2ccc(C)c3c2OC(C)(C)C3)c(=O)o1
The melting point of the first is higher: 74 to 75 °C for the first, 60 to 62 °C for the second.

First: O=C(O)Cc1cccc2c(-c3ccc(F)cc3)nccc12
Second: O=C(O)c1oc(=O)c2ncccc2c1-c1ccccc1
The melting point of the first is lower: 214 to 216 °C for the first, 288 to 290 °C for the second.

First: N=C(N)NCCc1nccs1
Second: Nc1cccc(CSCCNC(=O)c2c(Cl)cccc2Cl)c1
The melting point of the first is higher: 130 to 135 °C for the first, 55 to 56 °C for the second.

Compared with `CC(C)N(CCN1C(=O)/C(=N/NC(N)=O)c2ccccc21)Cc1ccccc1`, `COc1cccc(CC(c2ccccc2)N(CCO)CCO)c1` (stereo not given) is lower in melting point: 193 to 194 °C for the first, 67 to 69 °C for the second.

Compared with `CCCOCCOc1ccc(-c2ccc3c(c2)C=C(C(=O)Nc2ccc(CN(C)C4CCOCC4)cc2)CCS3(=O)=O)cc1`, `CCc1cccc(-c2ccc(S(=O)(=O)N3c4ccccc4CC3C(=O)NCc3ccc(CC(=O)O)cc3)cc2)c1` (stereo not given) is lower in melting point: 195 to 197 °C for the first, 98 °C for the second.

First: CC(Cn1ccc(C(F)(F)F)n1)n1nnc2cc3c(=O)n(C(C)Cn4ncnn4)nnc3cc2c1=O (stereo not given)
Second: CC(Cn1ncnn1)n1nnc2cc3c(=O)n(CC#N)nnc3cc2c1=O (stereo not given)
The melting point of the first is lower: 95 to 97 °C for the first, 209 to 212 °C for the second.

First: CCOc1nn(-c2ccc(C(F)(F)F)cn2)cc1CCOc1ccc(CCC(=O)O)c(OC)c1
Second: CCOC(=O)C1=C(COc2cccnc2)NC(COc2cccnc2)=C(C(=O)OCC)C1c1cccc([N+](=O)[O-])c1
The melting point of the first is lower: 147 to 148 °C for the first, 206 to 208 °C for the second.

First: CC(=O)OC1CSC(Oc2cccnc2Br)C(OC(C)=O)C1OC(C)=O (stereo not given)
Second: CC(=O)OC1CC2CCC3C(CCC4(C)C3CC(N3CCN(C)CC3)C4OC(C)=O)C2(C)CC1N1CCCCC1 (stereo not given)
The melting point of the first is higher: 161 °C for the first, 95 to 98 °C for the second.

First: O=Cc1[nH]cc2c1OCCO2
Second: Cc1cc(C(=O)c2cccs2)cc(C)c1OCC(=O)O
The melting point of the first is higher: 147 °C for the first, 115 °C for the second.

First: FC(F)C(F)(F)Oc1cccc(Nc2nccc(-c3ccnc(Cl)c3)n2)c1
Second: C#CCNC(=O)C(C)(COc1ccc(OCC)cc1)NS(=O)(=O)Cc1ccccc1 (stereo not given)
The melting point of the first is lower: 150 to 153 °C for the first, 155 to 156 °C for the second.

Compared with `Cc1sc(C)c2c(=O)n3cc(C(N)=O)ccc3nc12`, `Cc1cccc2c(Cc3nc4c(F)c(F)cc(F)c4s3)cn(CC(=O)O)c12` is lower in melting point: 272 to 275 °C for the first, 216 to 218 °C for the second.

First: CN1CCN(c2cc3nc(C(C)(C)C)sc3cc2N)CC1
Second: O=S1(=O)N2CN3CN1CP(C3)C2
The melting point of the first is lower: 130 °C for the first, 274 to 275 °C for the second.
